From US20130040291A1, “Detection and Quantification of Cellular Stress Response Resolution Pathway Expression and Functionality and the Effects of Agents or Conditions Thereupon” (priority 2011, published 2013)

Tests used:
CDNR4 cells [1] = type: cell-based, murine
Protocol: Following the cessation of the calibrated stress conditions exposure, the SR assay raw data is collected in the form of positive and negative wells (or cell growth sites) and in the form of viable or dead cell clones. The next steps of the assay involve expanding viable clones and determining their phenotypes. When the phenotype of interest being investigated in the SR assay is cell survival, the clones can be sub-classified using the testing listed in Table 6. This testing is performed as follows. Clones are removed from the tissue culture vessels in which they were placed before the start of the calibrated stress conditions exposure (using methods appropriate for the cell type), and subdivided into 4 different aliquots. Each aliquot is re-plated in an appropriate tissue culture vessel in medium containing the following. For one aliquot, the medium is growth medium (conditioned medium may be used) only; for a second aliquot the medium is supplemented with guanosine or folic acid at a concentration sufficient to enhance the survival and expansion of HPRT^− clones; for a third aliquot, the medium contains the same level of agent as used for the calibrated stress condition exposure, and the fourth aliquot is placed in HAT-medium containing an amount of aminopterin that is sufficient to induce growth arrest and/or cell death in Phen-HPRT^− cells of the cell type of interest (see above). Cell morphology (where informative for cell behavior and/or gene expression) and cell growth are monitored over the next 2, to 4 days to determine the response of the cells to these differing conditions. Cell clones can be subjected to additional testing as desired to evaluate further endpoints of interest and/or can be cryopreserved for future evaluations.
To subgroup Phen-ah clones as Phen-alt-rev or Phen-alt-irr, a representative group of these clones is tested further by subjecting the clones to repeated rounds of exposure to the calibrated stress conditions. Other stress inducing agents also may be used. Each exposure cycle is followed by a period of time to allow the cells to recover, and thus, to resolve the stress environment. After each exposure round, the percentage of cells that are resistant to the stress inducing agent or condition is recorded. […] The parental cell response that has been used in the examples below is defined as greater than 99% sensitivity to the calibrated stress conditions agent or condition, as evidenced by cell cycle arrest and/or cell death following exposure to the SR induction agent. Other stress response endpoints may be used and will depend upon the nature of the stress inducing agent used; these endpoints are incorporated herein.
The murine mammary epithelial cells designated CDNR4 were grown in their preferred growth medium (42% DMEM, 42% Hams F-12, 12% FBS, 1% 100×L-glutamine, 1% pen-strep, 0.5% to 1% bovine pituitary extract) until approximately 6 million cells were available. Cells were removed from the expansion flasks, counted, and replated at a rate of 500,000 cells per […] flask in growth medium. The flasks were assigned randomly to one of two groups: a vehicle-alone exposure (control group); an ENU-exposure (treated) group. […] For group 1 flasks, a volume of growth medium equal to the volume of ENU was added to the flasks. The cells were exposed to this solution for 1 hour at 37° C.; at the end of this time the solution was removed, the cells were washed with PBS at 37° C., and the cells were re-fed with fresh growth medium.
At the end of 2 weeks, the cells were removed from the flasks with trypsin/EDTA and passed through a 20 to 25 micron pore size sterile Nytran filter. The cell suspension was evaluated by light microscopy for evidence of large clumps, and was re-filtered if necessary using a new sterile Nytran filter of the same size to remove any apparent large clumps of cells. […]

CDNR4 cells [2] = experiment: Determination of the SRID-50% level of 6-TG (calibrated stress conditions); type: cell-based, murine
Protocol: The calibrated stress conditions and the SRID-x % level are determined ideally using parental, control, or vehicle-exposed cells. This portion of the assay requires that several variables, including cell plating density, calibrated stress conditions level, and duration of stress conditions exposure be optimized simultaneously. These variables are interdependent such that each affects the outcome of the other, thereby making this portion of the assay one of the most critical. To achieve high sensitivity for detection of assay endpoints, it is important that the maximum number of cells be evaluated; however, optimal calibrated stress conditions are achieved at relatively low cell plating densities. In addition, cell plating densities and the SKID-x % level of stress inducing agent chosen for use in the assay must be such that fewer than one positive endpoint per well occurs in the assay. Using cell survival as an example, if multiple surviving cell clones are identified in the same well(s) during an experiment, then the cell plating density must be reduced and/or the SRID-x % level must be increased so that the frequency of occurrence of surviving clones is reduced to less than one per well. Thus, optimization of these variables is necessary.
Pilot studies that evaluate a range of cell plating densities and a range of calibrated stress conditions levels for the stress inducing agent of choice are used and are applied to untreated, control or parental cells. It is advisable to use a low plating density that results in rapid expression of stress resolution pathways (within 3 to 4 days where possible), or as quickly as possible after calibrated stress conditions exposure. In spite of potentially significant differences between cells of different types from different tissues and from different species, preliminary results from the SR assay support the conclusion that the optimal plating density for many cell types falls within a predictable range. […] These values can serve as starting points for empirical determination of the optimal cell plating density for the cells of interest to be used in the assay.
After estimating the optimal cell plating density, dose response curves are generated for the calibrated stress conditions agent of interest. For experiments in which cell survival is the phenotype of interest, work with the assay completed to date supports the conclusion that calibrated stress conditions levels that reduce expression of pro-survival pathways to a level that results in survival of one or fewer clones in 50% of the wells of a 96 well plate (defined as the SRID-50%) is the optimal level for assessment of damage avoidance pro-survival pathways. Use of these levels also results in a sufficiently robust expression of damage tolerance paths to make it possible to evaluate differences or changes in expression of these pathways between cell types and/or between differing exogenous exposures. Because cell plating density and level of calibrated stress inducing agent are inter-dependent, it may be necessary to perform several pilot studies using differing cell plating densities and a range of stress-response inducing levels to find the optimal combination of use with the cell type of interest in the assay.
There are two limits associated with Poisson distribution principles that must be considered in selecting the SRID-x % level of stress inducing agent. First, stress induction levels that result in a response frequency, for the response type of interest, that is near or equal to 100% of the sites being evaluated should be avoided and the same considerations are true for stress induction levels resulting in responses frequencies near or equal to 0%. The SR assay cannot accurately quantify response frequencies near 100% or near 0%, and this limitation forms the one of the factors affecting the selection of the SRID-x % level. […]

[3] = tested on: immortalized human bronchial epithelial cell line #1; experiment: Determination of the SRID-10% dose of 6-TG, cell line #1; type: cell-based; conditions: 600 to 1000 cells per well, 96 well plates
Protocol: (§1) Two immortalized, human bronchial epithelial cells lines were expanded in their preferred growth medium and plated at the rate of 600 to 1000 cells per well in tissue culture wells of 96 well plates. Both cell lines were immortalized using hTERT technology. The cells were exposed to variable 6-TG concentrations that ranged up to 150 micrograms/ml 6-TG. For cell line #1; the SRID-10% dose of 6-TG was determined to be 110 micrograms/ml; for cell line #2 the SRID-10% dose of 6-TG was determined to be 60 micrograms/ml 6-TG. The mCE of cell line #1 was 41%; for cell line #2 it was 25%. Thus, the total pro-survival pathway functionality for cell line #1 was […] (0.41×110 microgms/ml 6-TG); for cell line #2 this value was calculated to be 15.

[4] = tested on: immortalized human bronchial epithelial cell line #2; experiment: Determination of the SRID-10% dose of 6-TG, cell line #2; type: cell-based; conditions: 600 to 1000 cells per well, 96 well plates
Protocol: as §1

SMILES	death of the cells during SR induction phase (CDNR4 cells [1]; 6TG 30 micrograms/ml, one to 3 days after start, 600 cells per well)	cell death after the end of SR induction phase (CDNR4 cells [1]; two to 3 days after 4 days of 6TG 30 micrograms/ml, all plates)	time to cell cycle arrest of all cells after start of 6-TG exposure (CDNR4 cells [2]; 6TG 1 to 100 micrograms/ml)	SRID-50% (1 viable clone in approximately 50% of wells of a 96-well plate) (CDNR4 cells [2]; CDNR4 cells, low plating density, 6-TG for four days)	SRID-50% (CDNR4 cells [2]; vehicle-exposed/parental CDNR4 cells, 500-600 cells per well of 96 well plate, 6-TG for four days)	SRID-10% dose of 6-TG [3]	SRID-10% dose of 6-TG [4]	SR assay results with MNU as pre-exposure agent in place of ENU (CDNR4 cells [1]; compared with the ENU experiments)
Nc1nc2nc[nH]c2c(=S)[nH]1 [6-TG, 6-thioguanine]	greater than 90%	~100%	≤ 24 h	35 µg/mL	35 micrograms/ml	110 micrograms/ml	60 micrograms/ml 6-TG	
CN(N=O)C(N)=O [MNU, methylnitrosourea]								similar
